Laboratory results as given in paper PMC11424024 (Methods in enzymology, 2024).

Legend:
[1] = target: Rv0097 (Mycobacterium tuberculosis, UniProt P9WG83)
[2] = target: ScoE (Streptomyces coeruleorubidus, UniProt A0A3B6UEU3); assay: LC-HRMS; format: biochemical; conditions: α-KG, Fe(II); no INBA formed, only a trace of 2

Rv0097, sequence (P9WG83 whole entry): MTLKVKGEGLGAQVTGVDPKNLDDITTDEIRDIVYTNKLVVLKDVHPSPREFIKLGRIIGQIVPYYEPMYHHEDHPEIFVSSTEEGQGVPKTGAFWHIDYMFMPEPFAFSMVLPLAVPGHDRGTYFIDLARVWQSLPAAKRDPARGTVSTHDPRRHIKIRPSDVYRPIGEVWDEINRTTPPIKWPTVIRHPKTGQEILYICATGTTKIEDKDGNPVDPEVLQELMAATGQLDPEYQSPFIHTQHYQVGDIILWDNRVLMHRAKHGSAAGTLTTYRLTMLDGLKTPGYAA

SMILES | LC-HRMS of INDA formation [1] | LC-HRMS; glyoxylate derivatization with 2-nitrophenylhydrazine [2]
CCCCCCCC(CC(=O)O)NCC(=O)O (racemic) [CADA, 3-[(carboxymethyl)amino]decanoic acid] | We reconstituted the activity of Rv0097 using the surrogate substrate CADA | –
C[C@H](CC(=O)O)NCC(=O)O [CABA, (R)-3-((carboxymethyl)amino)butanoic acid] | – | Y96F ScoE mutant revealed that it was unable to synthesize INBA from CABA
